Several values for one entry are separate records, joined by “and”; a condition that tells them apart may be missing. Identical values can stand only once. Numbers after ± are expanded uncertainties.
Conditions: Liquid

CCCC(C)O (stereo unspecified) [pentan-2-ol]
Conditions	vapor or sublimation pressure
323.84 K	4.16 ± 0.34 kPa
324.19 K	4.41 ± 0.36 kPa
324.55 K	4.39 ± 0.36 kPa
325.09 K	4.67 ± 0.38 kPa
326 K	4.93 ± 0.4 kPa
326.22 K	4.89 ± 0.4 kPa
326.99 K	5.27 ± 0.43 kPa
327.15 K	5.2 ± 0.42 kPa
327.64 K	5.43 ± 0.44 kPa
328.19 K	5.71 ± 0.46 kPa
328.23 K	5.64 ± 0.46 kPa
329.05 K	5.91 ± 0.48 kPa
329.11 K	5.95 ± 0.48 kPa and 6.04 ± 0.49 kPa
329.66 K	6.16 ± 0.5 kPa
329.9 K	6.33 ± 0.51 kPa
330.86 K	6.71 ± 0.54 kPa
331.78 K	7.08 ± 0.57 kPa
332.29 K	7.17 ± 0.58 kPa
332.55 K	7.4 ± 0.6 kPa
332.61 K	7.31 ± 0.59 kPa
332.92 K	7.43 ± 0.6 kPa
333.15 K	7.52 ± 0.6 kPa
333.37 K	7.76 ± 0.62 kPa
333.88 K	7.99 ± 0.64 kPa
334.61 K	8.33 ± 0.67 kPa
335.52 K	8.77 ± 0.7 kPa
336.34 K	9.17 ± 0.74 kPa
336.37 K	9.19 ± 0.74 kPa
337.2 K	9.59 ± 0.77 kPa
337.85 K	9.95 ± 0.8 kPa
338.74 K	10.43 ± 0.84 kPa
339.44 K	10.81 ± 0.87 kPa
340.1 K	11.21 ± 0.9 kPa
340.82 K	11.67 ± 0.94 kPa
341.54 K	12.11 ± 0.97 kPa
342.2 K	12.52 ± 1 kPa
342.83 K	12.77 ± 1 kPa
342.88 K	12.97 ± 1 kPa
343.15 K	13 ± 1 kPa
343.26 K	13.07 ± 1.1 kPa
343.3 K	13.11 ± 1.1 kPa
343.38 K	13.16 ± 1.1 kPa
344.38 K	13.99 ± 1.1 kPa
345.27 K	14.65 ± 1.2 kPa
346.15 K	15.31 ± 1.2 kPa
347.02 K	15.96 ± 1.3 kPa
347.8 K	16.63 ± 1.3 kPa
348.68 K	17.32 ± 1.4 kPa
349.38 K	17.95 ± 1.4 kPa
350.16 K	18.63 ± 1.5 kPa
350.93 K	19.31 ± 1.6 kPa
351.64 K	19.96 ± 1.6 kPa
351.88 K	20 ± 1.6 kPa
352.33 K	20.43 ± 1.6 kPa
352.6 K	20.65 ± 1.6 kPa
352.7 K	20.72 ± 1.7 kPa
352.76 K	20.83 ± 1.7 kPa
352.89 K	20.96 ± 1.7 kPa
353.05 K	21.12 ± 1.7 kPa
353.1 K	21.19 ± 1.7 kPa
353.15 K	21.2 ± 1.7 kPa
353.35 K	21.4 ± 1.7 kPa
354.12 K	22.16 ± 1.8 kPa
354.72 K	22.83 ± 1.8 kPa
355.42 K	23.55 ± 1.9 kPa
355.92 K	24.12 ± 1.9 kPa
356.39 K	24.44 ± 2 kPa
356.55 K	24.84 ± 2 kPa
357.15 K	25.47 ± 2 kPa
357.76 K	26.2 ± 2.1 kPa
357.79 K	26 ± 2.1 kPa
358.23 K	26.75 ± 2.1 kPa
358.83 K	27.45 ± 2.2 kPa
358.88 K	27.32 ± 2.2 kPa
359.01 K	27.45 ± 2.2 kPa
359.53 K	28.19 ± 2.3 kPa
359.91 K	28.67 ± 2.3 kPa
360.35 K	29.25 ± 2.3 kPa
360.5 K	29.41 ± 2.4 kPa
361.12 K	30.29 ± 2.4 kPa
361.45 K	30.68 ± 2.5 kPa
362.1 K	31.59 ± 2.5 kPa
362.5 K	32.13 ± 2.6 kPa
362.93 K	32.73 ± 2.6 kPa
363.38 K	33.35 ± 2.7 kPa
363.85 K	34.05 ± 2.7 kPa
364.28 K	34.64 ± 2.8 kPa
364.84 K	35.47 ± 2.8 kPa
365.13 K	35.95 ± 2.9 kPa
365.62 K	36.71 ± 2.9 kPa
366.01 K	37.32 ± 3 kPa
366.4 K	37.95 ± 3 kPa
366.86 K	38.64 ± 3.1 kPa
367.24 K	39.31 ± 3.1 kPa
367.65 K	39.97 ± 3.2 kPa
368.06 K	40.64 ± 3.2 kPa
368.44 K	41.27 ± 3.3 kPa
368.85 K	41.96 ± 3.4 kPa
369.31 K	42.73 ± 3.4 kPa
369.58 K	43.23 ± 3.5 kPa
370.05 K	44.05 ± 3.5 kPa
370.46 K	44.75 ± 3.6 kPa
370.74 K	45.4 ± 3.6 kPa
371.07 K	45.91 ± 3.7 kPa
371.47 K	46.64 ± 3.7 kPa
371.82 K	47.45 ± 3.8 kPa
372.15 K	47.93 ± 3.8 kPa
372.5 K	48.64 ± 3.9 kPa
372.91 K	49.31 ± 4 kPa
373.16 K	49.87 ± 4 kPa
373.57 K	50.71 ± 4.1 kPa
373.88 K	51.25 ± 4.1 kPa
374.25 K	52.03 ± 4.2 kPa
374.47 K	52.55 ± 4.2 kPa
374.85 K	53.37 ± 4.3 kPa
375.14 K	53.95 ± 4.3 kPa
375.44 K	54.67 ± 4.4 kPa
375.83 K	55.37 ± 4.4 kPa
376.13 K	56.01 ± 4.5 kPa
376.47 K	56.71 ± 4.5 kPa
376.74 K	57.36 ± 4.6 kPa
377.07 K	58 ± 4.6 kPa
377.32 K	58.64 ± 4.7 kPa
377.65 K	59.32 ± 4.8 kPa
377.91 K	59.97 ± 4.8 kPa
378.22 K	60.67 ± 4.8 kPa
378.56 K	61.4 ± 4.9 kPa
378.81 K	61.97 ± 5 kPa
379.04 K	62.61 ± 5 kPa
379.39 K	63.39 ± 5.1 kPa
379.6 K	63.91 ± 5.1 kPa
379.89 K	64.6 ± 5.2 kPa
380.13 K	65.2 ± 5.2 kPa
380.47 K	65.99 ± 5.3 kPa
380.7 K	66.63 ± 5.3 kPa
381 K	67.31 ± 5.4 kPa
381.26 K	68.01 ± 5.4 kPa
381.53 K	68.67 ± 5.5 kPa
381.76 K	69.31 ± 5.5 kPa
382.08 K	70.21 ± 5.6 kPa
382.28 K	70.63 ± 5.7 kPa
382.55 K	71.31 ± 5.7 kPa
382.78 K	71.95 ± 5.8 kPa
383.05 K	72.65 ± 5.8 kPa
383.29 K	73.35 ± 5.9 kPa
383.53 K	73.93 ± 5.9 kPa
383.76 K	74.63 ± 6 kPa
384.09 K	75.48 ± 6 kPa
384.26 K	75.99 ± 6.1 kPa
384.5 K	76.63 ± 6.1 kPa
384.74 K	77.35 ± 6.2 kPa
384.95 K	77.93 ± 6.2 kPa
385.42 K	79.27 ± 6.3 kPa
385.65 K	80 ± 6.4 kPa
385.87 K	80.56 ± 6.5 kPa
386.24 K	81.79 ± 6.5 kPa
386.32 K	81.88 ± 6.5 kPa
386.54 K	82.68 ± 6.6 kPa
386.76 K	83.23 ± 6.7 kPa
386.96 K	84.05 ± 6.7 kPa
387.37 K	85.27 ± 6.8 kPa
387.8 K	86.61 ± 6.9 kPa
388.23 K	88 ± 7 kPa
388.66 K	89.39 ± 7.2 kPa
389.07 K	90.69 ± 7.3 kPa
389.51 K	92.16 ± 7.4 kPa
389.9 K	93.44 ± 7.5 kPa
390.26 K	94.61 ± 7.6 kPa
390.65 K	95.95 ± 7.7 kPa
391.05 K	97.27 ± 7.8 kPa
391.46 K	98.71 ± 7.9 kPa
